# Numbered stars: 1 amine (or outer) side, 2 acyl side, 3 side chain; on linkers, the order of the positions; unused ones are H or OH. Bridge positions count the residues as written; N and C are the ends. Square brackets hold non-standard residues; d marks the D form. Peptide text beside a SMILES is read from it. * marks the point of attachment. C20 diacid = O=C(O)CCCCCCCCCCCCCCCCCCC(=O)*; γGlu = O=C(O)[C@H](CCC(=O)[*:2])N[*:1]; Hyp = O=C(O)[C@@H]1C[C@@H](O)CN1
# Key:
# [1] = target: T1, hAMY3 receptor (Homo sapiens, UniProt O60896+P30988); assay: cAMP assay for in vitro receptor activation, hAMY3-R; assay type: cell-based; settings: cAMP assay, hAMY3 receptor; read-out: hAMY3R EC50
# T1 sequence (P30988 25-474): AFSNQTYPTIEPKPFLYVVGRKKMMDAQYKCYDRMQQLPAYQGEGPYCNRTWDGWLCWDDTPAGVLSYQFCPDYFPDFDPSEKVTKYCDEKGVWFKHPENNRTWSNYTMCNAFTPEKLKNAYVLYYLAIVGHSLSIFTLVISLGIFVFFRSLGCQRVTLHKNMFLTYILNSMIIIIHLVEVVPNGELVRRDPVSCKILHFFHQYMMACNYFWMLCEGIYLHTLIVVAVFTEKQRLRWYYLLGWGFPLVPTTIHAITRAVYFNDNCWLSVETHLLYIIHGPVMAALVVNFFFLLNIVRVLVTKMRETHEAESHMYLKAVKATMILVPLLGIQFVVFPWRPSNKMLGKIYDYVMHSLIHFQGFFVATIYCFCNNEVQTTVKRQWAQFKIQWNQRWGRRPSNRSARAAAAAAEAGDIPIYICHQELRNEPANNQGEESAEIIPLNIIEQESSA
# T1 sequence (O60896 24-148 partner): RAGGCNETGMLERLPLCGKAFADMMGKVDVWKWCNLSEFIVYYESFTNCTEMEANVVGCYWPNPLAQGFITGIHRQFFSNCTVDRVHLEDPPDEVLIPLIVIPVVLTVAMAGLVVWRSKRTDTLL
# Method in brief: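 Monoclonal cell line stably overexpressing human AMY3 receptor, 2000 cells/well in DPBS with 0.05% casein and 0.5 mM IBMX. Stimulated 30 min at room temperature with graded compound doses, human amylin as positive control. cAMP accumulation read by TR-FRET after one hour.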
# [2] = target: hAM1 receptor (Homo sapiens, UniProt O60895+Q16602); assay: cAMP assay for in vitro receptor activation, hAM1-R; assay type: cell-based; settings: cAMP assay, hAM1 receptor; read-out: hAM1R EC50
# Chain of hAM1 receptor (Q16602 23-461): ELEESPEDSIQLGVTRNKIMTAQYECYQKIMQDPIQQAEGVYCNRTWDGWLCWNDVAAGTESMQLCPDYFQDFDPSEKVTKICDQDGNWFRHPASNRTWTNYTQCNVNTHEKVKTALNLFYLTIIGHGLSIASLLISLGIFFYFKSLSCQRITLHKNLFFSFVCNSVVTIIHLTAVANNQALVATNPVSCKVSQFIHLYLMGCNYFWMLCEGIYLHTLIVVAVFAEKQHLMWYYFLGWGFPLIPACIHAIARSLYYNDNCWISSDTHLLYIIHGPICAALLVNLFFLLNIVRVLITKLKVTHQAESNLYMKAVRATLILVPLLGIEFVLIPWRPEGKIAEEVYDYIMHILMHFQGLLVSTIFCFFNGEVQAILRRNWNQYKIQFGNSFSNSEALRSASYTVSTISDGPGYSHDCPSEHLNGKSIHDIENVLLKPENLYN
# Chain of hAM1 receptor (O60895 43-175 partner): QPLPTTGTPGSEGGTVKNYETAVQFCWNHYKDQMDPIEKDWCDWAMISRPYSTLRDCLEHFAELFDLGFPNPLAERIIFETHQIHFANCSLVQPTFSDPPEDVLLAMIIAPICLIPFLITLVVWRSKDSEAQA
# Method in brief: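 Read-out is intracellular cAMP as a measure of receptor activation. Cells stably overexpressing hAM1 were subcloned to a monoclonal line, then thawed and seeded at 8000 cells/well in DPBS with 0.05% casein and the phosphodiesterase inhibitor IBMX at 0.5 mM.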
SMILES,EC50 [1],EC50 [2]
CC[C@H](C)[C@H](NC(=O)[C@H](CCC(N)=O)NC(=O)[C@H](CC(=O)O)NC(=O)[C@H](C)NC(=O)[C@H](CC(C)C)NC(=O)[C@H](CCCNC(=N)N)NC(=O)[C@H](CC(N)=O)NC(=O)[C@@H](NC(=O)[C@@H](NC(=O)[C@@H]1CSSC[C@H](NC(=O)[C@@H](N)CCCNC(=N)N)C(=O)N[C@@H](CC(N)=O)C(=O)N[C@@H](C)C(=O)N[C@@H](CO)C(=O)N[C@@H]([C@@H](C)O)C(=O)N1)[C@@H](C)O)C(C)C)C(=O)N[C@H](C(=O)N[C@@H](CCC(N)=O)C(=O)N[C@@H](Cc1ccccc1)C(=O)N[C@@H](CO)C(=O)N[C@@H](CC(N)=O)C(=O)N[C@@H](CCCCN)C(=O)N[C@@H](CC(=O)O)C(=O)N[C@@H](CCCCN)C(=O)N[C@@H](C)C(=O)N[C@@H](CCC(N)=O)C(=O)N[C@H](C(=O)N[C@@H](CO)C(=O)N1CCC[C@H]1C(=O)N1CCC[C@H]1C(=O)N[C@H](C(=O)N[C@@H](CCC(=O)O)C(=O)N[C@H](C(=O)NCC(=O)N1CCC[C@H]1C(=O)N[C@@H](CC(N)=O)C(=O)N[C@@H](CO)C(=O)N1C[C@H](O)C[C@H]1C(N)=O)C(C)C)[C@@H](C)O)C(C)C)[C@@H](C)O [compound 9] (H-RCNASTCTVNRLADQITQFSNKDKAQVSPPTEVGPNS[Hyp]-NH2; disulfide 2-7; N-terminus assumed),0.006 nM,> 5000 nM
CC[C@H](C)[C@H](NC(=O)[C@H](C)NC(=O)CNC(=O)[C@H](Cc1ccccc1)NC(=O)[C@H](CC(N)=O)NC(=O)[C@H](CC(N)=O)NC(=O)[C@H](CO)NC(=O)[C@H](CO)NC(=O)[C@H](Cc1c[nH]cn1)NC(=O)[C@@H](NC(=O)[C@H](CC(C)C)NC(=O)[C@H](Cc1ccccc1)NC(=O)[C@H](CC(N)=O)NC(=O)[C@H](C)NC(=O)[C@H](CC(C)C)NC(=O)[C@H](CCCNC(=N)N)NC(=O)[C@H](CCC(N)=O)NC(=O)[C@@H](NC(=O)[C@H](C)NC(=O)[C@@H]1CSSC[C@H](NC(=O)[C@@H](N)CCCCN)C(=O)N[C@@H](CC(N)=O)C(=O)N[C@@H]([C@@H](C)O)C(=O)N[C@@H](C)C(=O)N[C@@H]([C@@H](C)O)C(=O)N1)[C@@H](C)O)C(C)C)C(=O)N[C@@H](CC(C)C)C(=O)N[C@@H](CO)C(=O)N[C@@H](CO)C(=O)N[C@H](C(=O)N[C@@H](CCCCN)C(=O)N[C@H](C(=O)NCC(=O)N[C@@H](CO)C(=O)N[C@@H](CC(N)=O)C(=O)N[C@H](C(=O)N[C@@H](Cc1ccc(O)cc1)C(N)=O)[C@@H](C)O)C(C)C)[C@@H](C)O [compound 58],0.012 nM,> 5000 nM
CC[C@H](C)[C@H](NC(=O)[C@H](CCC(N)=O)NC(=O)[C@H](Cc1c[nH]cn1)NC(=O)[C@H](C)NC(=O)[C@H](CC(C)C)NC(=O)[C@H](CCCNC(=N)N)NC(=O)[C@H](CCC(N)=O)NC(=O)[C@@H](NC(=O)[C@@H](NC(=O)[C@@H]1CSSC[C@H](NC(=O)[C@@H](N)CCCCN)C(=O)N[C@@H](CC(N)=O)C(=O)N[C@@H]([C@@H](C)O)C(=O)N[C@@H](C)C(=O)N[C@@H]([C@@H](C)O)C(=O)N1)[C@@H](C)O)C(C)C)C(=O)N[C@@H](Cc1ccc(O)cc1)C(=O)N[C@@H](CCC(N)=O)C(=O)N[C@@H](Cc1ccccc1)C(=O)N[C@H](C(=O)N[C@@H](CC(=O)O)C(=O)N[C@@H](CCCCN)C(=O)N[C@@H](CC(=O)O)C(=O)N[C@@H](CCCCN)C(=O)N[C@@H](CC(=O)O)C(=O)N[C@@H](CC(N)=O)C(=O)N[C@H](C(=O)N[C@@H](C)C(=O)N1CCC[C@H]1C(=O)N1CCC[C@H]1C(=O)N[C@H](C(=O)N[C@@H](CC(N)=O)C(=O)N[C@H](C(=O)NCC(=O)N[C@@H](CO)C(=O)N[C@@H](CC(N)=O)C(=O)NCC(=O)N1C[C@H](O)C[C@H]1C(N)=O)C(C)C)[C@@H](C)O)C(C)C)[C@@H](C)O [compound 75] (H-KCNTATCTVQRLAHQIYQFTDKDKDNVAPPTNVGSNG[Hyp]-NH2; disulfide 2-7; N-terminus assumed),0.013 nM,> 5000 nM

# The remaining lines, values ahead:
EC50 [1],EC50 [2],SMILES
0.186 nM,> 5000 nM,CC[C@H](C)[C@H](NC(=O)[C@H](CCC(N)=O)NC(=O)[C@H](Cc1c[nH]cn1)NC(=O)[C@H](C)NC(=O)[C@H](CC(C)C)NC(=O)[C@H](CCCNC(=N)N)NC(=O)[C@H](CCC(N)=O)NC(=O)[C@@H](NC(=O)[C@@H](NC(=O)[C@@H]1CSSC[C@H](NC(=O)[C@H](CCCCN)NC(=O)CC[C@H](NC(=O)CCCCCCCCCCCCCCCCCCC(=O)O)C(=O)O)C(=O)N[C@@H](CC(N)=O)C(=O)N[C@@H]([C@@H](C)O)C(=O)N[C@@H](CC(C)C)C(=O)N[C@@H]([C@@H](C)O)C(=O)N1)[C@@H](C)O)C(C)C)C(=O)N[C@@H](Cc1ccc(O)cc1)C(=O)N[C@@H](CCC(N)=O)C(=O)N[C@@H](Cc1ccccc1)C(=O)N[C@H](C(=O)N[C@@H](CC(=O)O)C(=O)N[C@@H](CCCCN)C(=O)N[C@@H](CC(=O)O)C(=O)N[C@@H](CCCCN)C(=O)N[C@@H](CC(=O)O)C(=O)N[C@@H](CC(N)=O)C(=O)N[C@H](C(=O)N[C@@H](C)C(=O)N1CCC[C@H]1C(=O)N1CCC[C@H]1C(=O)N[C@H](C(=O)N[C@@H](CC(N)=O)C(=O)N[C@H](C(=O)NCC(=O)N[C@@H](CO)C(=O)N[C@@H](CC(N)=O)C(=O)NCC(=O)N1C[C@H](O)C[C@H]1C(N)=O)C(C)C)[C@@H](C)O)C(C)C)[C@@H](C)O [compound 225] ({C20 diacid-γGlu}-KCNTLTCTVQRLAHQIYQFTDKDKDNVAPPTNVGSNG[Hyp]-NH2; disulfide 2-7)
0.022 nM,12 nM,CC[C@H](C)[C@H](NC(=O)[C@H](CCCCN)NC(=O)[C@@H](NC(=O)[C@H](CCCNC(=N)N)NC(=O)[C@@H]1CCCN1C(=O)[C@H](C)NC(=O)[C@@H](NC(=O)[C@H](CC(N)=O)NC(=O)[C@H](CC(=O)O)NC(=O)[C@H](CCCCN)NC(=O)[C@H](CC(=O)O)NC(=O)[C@H](CCCCN)NC(=O)[C@H](CC(=O)O)NC(=O)[C@@H](NC(=O)[C@H](Cc1ccccc1)NC(=O)[C@H](CCC(N)=O)NC(=O)[C@H](Cc1ccc(O)cc1)NC(=O)[C@H](CC(C)C)NC(=O)[C@H](Cc1ccccc1)NC(=O)[C@H](Cc1c[nH]cn1)NC(=O)[C@H](C)NC(=O)[C@H](CC(C)C)NC(=O)[C@H](CCCNC(=N)N)NC(=O)[C@H](CCC(N)=O)NC(=O)[C@@H](NC(=O)[C@@H](NC(=O)[C@@H]1CSSC[C@H](NC(=O)CN)C(=O)N[C@@H](CCCNC(=N)N)C(=O)N[C@@H](Cc2ccccc2)C(=O)NCC(=O)N[C@@H]([C@@H](C)O)C(=O)N1)[C@@H](C)O)C(C)C)[C@@H](C)O)C(C)C)[C@@H](C)O)C(=O)NCC(=O)N[C@@H](CO)C(=O)N[C@@H](CC(N)=O)C(=O)NCC(=O)N[C@@H](Cc1ccc(O)cc1)C(N)=O [compound 376] (H-GCRFGTCTVQRLAHFLYQFTDKDKDNVAPRTKIGSNGY-NH2; disulfide 2-7; N-terminus assumed)
0.015 nM,> 5000 nM,CC[C@H](C)[C@H](NC(=O)[C@H](CCC(N)=O)NC(=O)[C@H](Cc1c[nH]cn1)NC(=O)[C@H](C)NC(=O)[C@H](CC(C)C)NC(=O)[C@H](CCCNC(=N)N)NC(=O)[C@H](C)NC(=O)[C@@H](NC(=O)[C@@H](NC(=O)[C@@H]1CSSC[C@H](NC(=O)[C@H](CCCCN)NC(=O)CC[C@H](NC(=O)CCCCCCCCCCCCCCCCCCC(=O)O)C(=O)O)C(=O)N[C@@H](CC(N)=O)C(=O)N[C@@H]([C@@H](C)O)C(=O)N[C@@H](C)C(=O)N[C@@H]([C@@H](C)O)C(=O)N1)[C@@H](C)O)C(C)C)C(=O)N[C@@H](CC(N)=O)C(=O)N[C@@H](CCC(N)=O)C(=O)N[C@@H](Cc1ccccc1)C(=O)N[C@H](C(=O)N[C@@H](CC(=O)O)C(=O)N[C@@H](CCCCN)C(=O)N[C@@H](CC(=O)O)C(=O)N[C@@H](CCCCN)C(=O)N[C@@H](CC(=O)O)C(=O)N[C@@H](CC(N)=O)C(=O)N[C@H](C(=O)N[C@@H](C)C(=O)N1CCC[C@H]1C(=O)N1CCC[C@H]1C(=O)N[C@H](C(=O)N[C@@H](CC(N)=O)C(=O)N[C@H](C(=O)NCC(=O)N[C@@H](CO)C(=O)N[C@@H](CC(N)=O)C(=O)NCC(=O)N1C[C@H](O)C[C@H]1C(N)=O)C(C)C)[C@@H](C)O)C(C)C)[C@@H](C)O [compound 86] ({C20 diacid-γGlu}-KCNTATCTVARLAHQINQFTDKDKDNVAPPTNVGSNG[Hyp]-NH2; disulfide 2-7)

# Source: US12139520B2 (priority 2020, dated 2024)
